Data as given in patent US10011614B2, “Bis-β-carboline compound and preparation method, pharmaceutical composition and use thereof” (XINJIANG HUASHIDAN PHARMACEUTICAL RESEARCH CO., LTD., priority 2012, dated 2018).

Experiments:
[1] = system: SK-OV-3 (human ovarian cancer cells); assay: Antitumor screening in vitro, MTT assay, SK-OV-3; assay type: cell-based; conditions: 48 hours, SK-OV-3 cells
Method: (§1) Cell lines: BGC (human gastric cancer cells), A375 (human malignant melanoma cells), 769-P (human renal carcinoma cells), KB (human oral epidermoid carcinoma cells), SK-OV-3 (human ovarian cancer cells), etc, were selected, and the test method was the MTT assay. Cisplatin was as a positive control.
(§2) Specific methods are as follows: cells growing well in the logarithmic phase were seeded in 96-well plates at a concentration of 1×10^4 cells/ml, and then were placed in 37° C., containing 5% CO2 incubator for 24 hours. After discarding the old solution, changed fresh medium, and added sterilization treatment compound, and then cultured for 48 hours. After discarding the culture medium, 20 ul RPMI1640 medium containing 5 mg/ml MTT were added to each well in 96-well plates and cells were cultured for 4 hours. After the supernatant was carefully removed, 100 μl DMSO was added to each well, and the plates were Oscillated about 10 min to dissolve the precipitate, followed by detecting OD value in wavelength 490 nm by the microplate reader. Cell survival rate for each sample concentrations was determined by the following formula: The mean survival rate %=the average OD value of sample group/the average OD value of control group×100%
(§3) Morphological studies by mapping with the logarithm of the drug concentration and the mean survival rate % of each sample to obtain IC50 values for each sample.

[2] = system: KB (human oral epidermoid carcinoma cells); assay: Antitumor screening in vitro, MTT assay, KB; assay type: cell-based; conditions: 48 hours
Method: as §1, §2, §3

[3] = system: 769-P (human renal carcinoma cells); assay: Antitumor screening in vitro, MTT assay, 769-P; assay type: cell-based; conditions: 48 hours, 769-P cells
Method: as §1, §2, §3

[4] = in vivo; conditions: both, Kunming, mouse, in vivo, ip
Method: (§4) Solvent: 0.9% saline and 0.5% CMC-Na solution. According to pre-test results, design 5 dose gradient for each sample, dose spacing was 0.8 times. […] Experimental volume is 0.5 ml/20 g mouse. A single intraperitoneal administration is used. Kunming mice were taken and grouped randomly by gender, and intraperitoneal administration according to dose designation was set to observe the immediate reaction after administration in mice. Dead animals were dissected to observe, surviving animals continued to observe two weeks, and the animal deaths in two weeks were recorded. After two weeks, surviving animals were dissected, observed substantial organ lesions, and the organs having substantive lesions were further for histological examination. According to the number of deaths in each group of animals, calculating the median lethal dose (LD50 value) by Bliss method, and further, calculating the maximum tolerated dose (MTD) for less toxic compounds.

[5] = system: A375 (human malignant melanoma cells); assay: Antitumor screening in vitro, MTT assay, A375; assay type: cell-based
Method: as §1, §2, §3

[6] = system: BGC (human gastric cancer cells); assay: Antitumor screening in vitro, MTT assay, BGC; assay type: cell-based; conditions: 48 hours
Method: as §1, §2, §3

[7] = system: Kunming mice; assay: Acute toxicity test in mice (LD50); conditions: Kunming mice, single intraperitoneal administration, observed two weeks, Bliss method
Method: as §4

| Compound | IC50 ([1]; Homo sapiens) | IC50 ([2]; Homo sapiens) | IC50 ([3]; Homo sapiens) | LD50 at 2 weeks [4] | IC50 ([5]; Homo sapiens, A-375, 48 hours) | IC50 ([6]; Homo sapiens) | IC50 [1] | IC50 [2] | IC50 [3] | acute toxicity LD50 [7] | IC50 ([5]; 48 hours) | IC50 [6] | melting point |
| --- | --- | --- | --- | --- | --- | --- | --- | --- | --- | --- | --- | --- | --- |
| COc1ccc2c3ccnc(C)c3n(CCCCn3c4cc(OC)ccc4c4ccnc(C)c43)c2c1 [Compound 14, 1,4-bis(7-methoxy-1-methyl-β-carboline-9-yl) butane] | 7.1 µM | 2.8 µM | 65.6 µM | 50 mg/kg | 6.2 µM | 75.7 µM | – | – | – | – | – | – | – |
| COc1ccc2c3ccnc(C)c3n(CCCCCCCn3c4cc(OC)ccc4c4ccnc(C)c43)c2c1 [Compound 17, 1,7-bis(7-methoxy-1-methyl-β-carboline-9-yl) heptane] | 11.7 µM | 155 µM | > 300 µM | 200 mg/kg | 35.3 µM | > 300 µM | – | – | – | – | – | – | – |
| c1ccc2c(c1)c1ccnc(-c3ccsc3)c1n2CCCCCCCCn1c2ccccc2c2ccnc(-c3ccsc3)c21 [Compound 34, 1,8-bis[1-(3-thienyl)-β-carboline-9-yl) octane] | > 300 µM | > 300 µM | > 300 µM | 250 mg/kg | 32.1 µM | > 300 µM | – | – | – | – | – | – | – |
| Cc1nccc2c3ccc(OC(C)C)cc3n(CCCCCCCCCn3c4cc(OC(C)C)ccc4c4ccnc(C)c43)c12 [Compound 26, 1,9-bis(7-isopropoxy-1-methyl-β-carboline-9-yl) nonane] | 101 µM | 112 µM | 40 µM | 200 mg/kg | 43.3 µM | > 300 µM | – | – | – | – | – | – | – |
| COc1cc(-c2nccc3c4ccccc4n(CCCCCCn4c5ccccc5c5ccnc(-c6cc(OC)c(OC)c(OC)c6)c54)c23)cc(OC)c1OC [Compound 19, 1,6-bis[1-(3,4,5-trimethoxy)phenyl-β-carboline-9-yl) hexane] | – | – | – | – | – | – | > 300 µM | > 300 µM | 16.8 µM | 200 mg/kg | 5.9 µM | > 300 µM | – |
| Cc1nccc2c3cc(Br)ccc3n(CCCCCCn3c4ccc(Br)cc4c4ccnc(C)c43)c12 [Compound 22, 1,6-bis(6-bromo-1-methyl-β-carboline-9-yl) hexane] | 63.4 µM | > 300 µM | > 300 µM | 200 mg/kg | > 300 µM | > 300 µM | – | – | – | – | – | – | – |
| Cc1nccc2c3ccccc3n(CCCCCCCCn3c4ccccc4c4ccnc(C)c43)c12 [Compound 11, 1,8-bis(1-methyl-β-carboline-9-yl) octane] | > 300 µM | > 300 µM | 3.1 µM | 200 mg/kg | > 300 µM | > 300 µM | – | – | – | – | – | – | – |
| CCOC(=O)c1cc2c3ccccc3n(CCCCCCn3c4ccccc4c4cc(C(=O)OCC)nc(-c5cc(OC)c(OC)c(OC)c5)c43)c2c(-c2cc(OC)c(OC)c(OC)c2)n1 [Compound 27, 1,6-bis[1-(3,4.5-trimethoxy)phenyl-β-carboline-β-ethyoxylcarbonyl-9-yl]hexane] | – | – | – | – | – | – | – | – | – | 300 mg/kg | – | – | – |
| c1ccc2c(c1)c1ccncc1n2CCCCn1c2ccccc2c2ccncc21 [Compound 1, 1,4-bis(β-carboline-9-yl) butane] | > 300 µM | > 300 µM | 199 µM | 200 mg/kg | > 300 µM | 59.7 µM | – | – | – | – | – | – | – |
| Cc1nccc2c3ccccc3n(CCCCCCn3c4ccccc4c4ccnc(C)c43)c12 [Compound 9, 1,6-bis(1-methyl-β-carboline-9-yl) hexane] | 96.8 µM | > 300 µM | 51.7 µM | 200 mg/kg | > 300 µM | > 300 µM | – | – | – | – | – | – | – |
| CCCCOc1ccc2c3ccnc(C)c3n(CCCCn3c4cc(OCCCC)ccc4c4ccnc(C)c43)c2c1 [Compound 23, 1,4-bis(7-n-butoxy-1-methyl-β-carboline-9-yl) butane] | 5.5 µM | 6.8 µM | > 300 µM | – | 3.8 µM | 8.5 µM | – | – | – | – | – | – | 193 to 194 °C |
| Cc1nccc2c3ccccc3n(CCCCn3c4ccccc4c4ccnc(C)c43)c12 [Compound 7, 1,4-bis(1-methyl-β-carboline-9-yl) butane] | 4.8 µM | 6.4 µM | 6.5 µM | 200 mg/kg | 13.1 µM | 22.3 µM | – | – | – | – | – | – | – |
| Cc1nccc2c3ccccc3n(CCCCCCCCCn3c4ccccc4c4ccnc(C)c43)c12 [Compound 12, 1,9-bis(1-methyl-β-carboline-9-yl) nonane] | 61.9 µM | > 300 µM | 291 µM | – | 67.2 µM | > 300 µM | – | – | – | – | – | – | 155 to 156 °C |
| Cc1nccc2c3ccccc3n(CCCCCCCCCCn3c4ccccc4c4ccnc(C)c43)c12 [Compound 13, 1,10-bis(1-methyl-β-carboline-9-yl) decane] | 8.5 µM | > 300 µM | 16.2 µM | – | > 300 µM | > 300 µM | – | – | – | – | – | – | 152 to 154 °C |
